Bridge positions count the residues as written; N and C are the ends. Square brackets hold non-standard residues; d marks the D form. Ends that are not written are not given here. Met(O) = CS(=O)CC[C@H](N)C(=O)O
Tests used:
Type in all cases: in vivo, Kunming white mice
normal mice [1] = test: Hypoglycemic effect of synthetic polypeptides on normal mice after subcutaneous injection (Example 9); settings: 1 mg/mL at 0.05 ml/10 g, single subcutaneous injection on the back; for Blood glucose level prior to administration: baseline
normal mice [2] = test: Hypoglycemic effect of polypeptides on normal mice after tail vein injection (Example 4); settings: 1 mg/mL at 0.05 ml/10 g, single tail vein injection; for Blood glucose level prior to administration: baseline
normal mice [3] = test: Hypoglycemic effect on normal mice after tail vein, subcutaneous and intramuscular injection (Example 8); settings: 1 mg/mL at 0.05 ml/10 g once; for Blood glucose level prior to administration: baseline
normal mice [4] = test: Hypoglycemic effect on normal mice after subcutaneous injection on the back (Example 5); settings: for Blood glucose level at 15 min after administration / Blood glucose level at 30 min after administration / Blood glucose level at 45 min after administration / Blood glucose level at 60 min after administration / Blood glucose level prior to administration: single subcutaneous injection on the back; for Blood glucose level prior to administration: baseline
normal mice [5] = test: Polypeptide vs insulin on normal mice after tail vein injection (Example 10)
[6] = Group B, subcutaneous injection on the back
[7] = Group C, intramuscular injection in the lateral thigh
[8] = Group A high-dose, 1 mg/mL at 0.10 ml/10 g
[9] = Group B medium-dose, 1 mg/mL at 0.05 ml/10 g
[10] = Group C low-dose, 1 mg/mL at 0.025 ml/10 g
[11] = single tail vein injection, polypeptide 2 mg/mL at 0.05 ml/10 g (10 mg/kg), insulin 0.5 U/mL (2.5 U/kg)

Substance | Blood glucose level at 15 min after administration (normal mice [1]) | Blood glucose level at 30 min after administration (normal mice [1]) | Blood glucose level at 45 min after administration (normal mice [1]) | Blood glucose level at 60 min after administration (normal mice [1]) | Blood glucose level prior to administration (normal mice [1]) | also measured
ASCNGVCSPFDIPPCGTPLCRCIPVGLVIGNCRNPYG (disulfide 15-32, 3-20, 7-22) [SEQ ID No. 13] | 6.1 ± 0.3 mmol/L | 4.4 ± 0.4 mmol/L | 3.5 ± 0.3 mmol/L | 2.6 ± 0.3 mmol/L | 7.4 ± 0.6 mmol/L | 
ASCNGVCSPFDMPPCGTSACRCIPAGLFIGKCRNPYG (disulfide 15-32, 3-20, 7-22) [SEQ ID No. 17] | 6.6 ± 0.5 mmol/L | 4.9 ± 0.4 mmol/L | 3.6 ± 0.3 mmol/L | 3.0 ± 0.2 mmol/L | 8.2 ± 0.7 mmol/L | 
ASCNGVCSPFEIPPCGSPLCRCIPVGLVIGNCRNPYG (disulfide 15-32, 3-20, 7-22) [SEQ ID No. 21] | 6.7 ± 0.4 mmol/L | 5.2 ± 0.3 mmol/L | 4.3 ± 0.2 mmol/L | 3.6 ± 0.1 mmol/L | 7.8 ± 0.4 mmol/L | 
ASCNGVCSPFEMPPCGSSACRCIPVGLLIGYCRNPSG (disulfide 15-32, 3-20, 7-22; listed as Pisum sativum) [SEQ ID No. 5] |  |  |  |  |  | Blood glucose level at 15 min after administration (normal mice [2]): 6.3 ± 0.3 mmol/L; Blood glucose level at 30 min after administration (normal mice [2]): 5.3 ± 0.3 mmol/L; Blood glucose level prior to administration (normal mice [2]): 7.1 ± 0.5 mmol/L
ASCNGVCSPFEMPPCGTSACRCIPVGLVIGYCRNPSG (disulfide 15-32, 3-20, 7-22; listed as Pisum sativum) [SEQ ID No. 3] |  |  |  |  |  | Blood glucose level at 15 min after administration (normal mice [3]; Group A, tail vein injection): 5.6 ± 0.3 mmol/L; Blood glucose level at 30 min after administration (normal mice [3]; Group A, tail vein injection): 4.5 ± 0.2 mmol/L; Blood glucose level at 45 min after administration (normal mice [3]; Group A, tail vein injection): 3.2 ± 0.1 mmol/L; Blood glucose level at 60 min after administration (normal mice [3]; Group A, tail vein injection): 2.4 ± 0.2 mmol/L; Blood glucose level prior to administration (normal mice [3]; Group A, tail vein injection): 7.3 ± 0.5 mmol/L; Blood glucose level at 15 min after administration (normal mice [3]; [6]): 5.2 ± 0.2 mmol/L; Blood glucose level at 30 min after administration (normal mice [3]; [6]): 3.5 ± 0.3 mmol/L; Blood glucose level at 45 min after administration (normal mice [3]; [6]): 2.8 ± 0.2 mmol/L; Blood glucose level at 60 min after administration (normal mice [3]; [6]): 2.1 ± 0.1 mmol/L; Blood glucose level prior to administration (normal mice [3]; [6]): 6.2 ± 0.3 mmol/L; Blood glucose level at 15 min after administration (normal mice [3]; [7]): 6.3 ± 0.5 mmol/L; Blood glucose level at 30 min after administration (normal mice [3]; [7]): 4.8 ± 0.4 mmol/L; Blood glucose level at 45 min after administration (normal mice [3]; [7]): 3.5 ± 0.3 mmol/L; Blood glucose level at 60 min after administration (normal mice [3]; [7]): 2.6 ± 0.2 mmol/L; Blood glucose level prior to administration (normal mice [3]; [7]): 8.1 ± 0.7 mmol/L
ASCNGVCSPFEMoxPPCGSSACRCIPVGLLIGYCRNPSG (ASCNGVCSPFE[Met(O)]PPCGSSACRCIPVGLLIGYCRNPSG; disulfide 15-32, 3-20, 7-22; listed as Pisum sativum) [SEQ ID No. 6] |  |  |  |  |  | Blood glucose level at 15 min after administration (normal mice [2]): 5.6 ± 0.3 mmol/L; Blood glucose level at 30 min after administration (normal mice [2]): 4.2 ± 0.3 mmol/L; Blood glucose level prior to administration (normal mice [2]): 6.6 ± 0.4 mmol/L
ASCNGVCSPFEMoxPPCGTSACRCIPVGLFIGYCRNPSG (ASCNGVCSPFE[Met(O)]PPCGTSACRCIPVGLFIGYCRNPSG; disulfide 15-32, 3-20, 7-22; listed as Pisum sativum) [SEQ ID No. 8] |  |  |  |  |  | Blood glucose level at 15 min after administration (normal mice [4]; [8]): 5.1 ± 0.4 mmol/L; Blood glucose level at 30 min after administration (normal mice [4]; [8]): 3.0 ± 0.4 mmol/L; Blood glucose level at 45 min after administration (normal mice [4]; [8]): 2.2 ± 0.2 mmol/L; Blood glucose level at 60 min after administration (normal mice [4]; [8]): 1.7 ± 0.1 mmol/L; Blood glucose level prior to administration (normal mice [4]; [8]): 7.4 ± 0.5 mmol/L; Blood glucose level at 15 min after administration (normal mice [4]; [9]): 5.2 ± 0.4 mmol/L; Blood glucose level at 30 min after administration (normal mice [4]; [9]): 4.3 ± 0.5 mmol/L; Blood glucose level at 45 min after administration (normal mice [4]; [9]): 3.2 ± 0.3 mmol/L; Blood glucose level at 60 min after administration (normal mice [4]; [9]): 2.6 ± 0.2 mmol/L; Blood glucose level prior to administration (normal mice [4]; [9]): 7.1 ± 0.6 mmol/L; Blood glucose level at 15 min after administration (normal mice [4]; [10]): 6.2 ± 0.3 mmol/L; Blood glucose level at 30 min after administration (normal mice [4]; [10]): 4.9 ± 0.3 mmol/L; Blood glucose level at 45 min after administration (normal mice [4]; [10]): 3.8 ± 0.2 mmol/L; Blood glucose level at 60 min after administration (normal mice [4]; [10]): 4.6 ± 0.2 mmol/L; Blood glucose level prior to administration (normal mice [4]; [10]): 7.3 ± 0.4 mmol/L; hypoglycemic activity (conclusion) (normal mice [4]; normal mice, subcutaneous injection): explicit hypoglycemic activity
ASCNGVCSPFEMoxPPCGTSACRCIPVGLVIGYCRNPSG (ASCNGVCSPFE[Met(O)]PPCGTSACRCIPVGLVIGYCRNPSG; disulfide 15-32, 3-20, 7-22; listed as Pisum sativum) [SEQ ID No. 4] |  |  |  |  |  | Blood glucose level at 15 min after administration (normal mice [2]): 6.9 ± 0.4 mmol/L; Blood glucose level at 30 min after administration (normal mice [2]): 4.6 ± 0.3 mmol/L; Blood glucose level prior to administration (normal mice [2]): 7.5 ± 0.5 mmol/L
ASCNGVCSPFEMoxPPCGTSACRCIPVGLVVGYCRNPSG (ASCNGVCSPFE[Met(O)]PPCGTSACRCIPVGLVVGYCRNPSG; disulfide 15-32, 3-20, 7-22; listed as Pisum sativum) [SEQ ID No. 2] |  |  |  |  |  | Blood glucose level at 15 min after administration (normal mice [2]): 6.5 ± 0.2 mmol/L; Blood glucose level at 30 min after administration (normal mice [2]): 4.6 ± 0.3 mmol/L; Blood glucose level prior to administration (normal mice [2]): 7.2 ± 0.3 mmol/L
ISCNGVCSPFDIPPCGSPLCRCIPAGLVIGNCRNPYG (disulfide 15-32, 3-20, 7-22; listed as Pisum sativum) [SEQ ID No. 11] |  |  |  |  |  | hypoglycemic effect compared with insulin (normal mice [5]; polypeptide 10 mg/kg vs insulin 2.5 U/kg, tail vein injection): the same hypoglycemic effect on normal mice as insulin; Blood glucose level at 15 min after administration (normal mice [5]; [11]): 4.1 ± 0.3 mmol/L; Blood glucose level at 30 min after administration (normal mice [5]; [11]): 2.8 ± 0.2 mmol/L; Blood glucose level at 45 min after administration (normal mice [5]; [11]): 2.2 ± 0.1 mmol/L; Blood glucose level at 60 min after administration (normal mice [5]; [11]): 2.0 ± 0.1 mmol/L; Blood glucose level prior to administration (normal mice [5]; single tail vein injection, polypeptide 2 mg/mL at 0.05 ml/10 g (10 mg/kg), insulin 0.5 U/mL (2.5 U/kg), baseline): 8.2 ± 0.5 mmol/L
ISCNGVCSPFDIPPCGTPLCRCIPAGLFVGKCRNPYG (disulfide 15-32, 3-20, 7-22) [SEQ ID No. 36] | 6.2 ± 0.4 mmol/L | 4.3 ± 0.3 mmol/L | 3.5 ± 0.2 mmol/L | 2.8 ± 0.1 mmol/L | 7.1 ± 0.5 mmol/L | 
ISCNGVCSPFDMPPCGSPACRCIPAGLLIGYCRNPSG (disulfide 15-32, 3-20, 7-22) [SEQ ID No. 38] | 4.9 ± 0.3 mmol/L | 3.6 ± 0.4 mmol/L | 3.1 ± 0.2 mmol/L | 3.5 ± 0.3 mmol/L | 6.3 ± 0.5 mmol/L | 
ISCNGVCSPFEIPPCGSSLCRCIPAGLLVGKCRNPSG (disulfide 15-32, 3-20, 7-22) [SEQ ID No. 44] | 6.3 ± 0.3 mmol/L | 5.5 ± 0.2 mmol/L | 3.8 ± 0.3 mmol/L | 2.6 ± 0.2 mmol/L | 7.2 ± 0.3 mmol/L | 
ISCNGVCSPFEMPPCGTSLCRCIPAGLVVGYCRNPSG (disulfide 15-32, 3-20, 7-22) [SEQ ID No. 50] | 6.2 ± 0.5 mmol/L | 5.3 ± 0.2 mmol/L | 4.6 ± 0.3 mmol/L | 3.2 ± 0.3 mmol/L | 7.3 ± 0.6 mmol/L | 
VSCNGVCSPFDIPPCGTPACRCIPYGLFVGNCRNPYG (disulfide 15-32, 3-20, 7-22) [SEQ ID No. 52] | 6.4 ± 0.4 mmol/L | 5.4 ± 0.5 mmol/L | 4.3 ± 0.3 mmol/L | 2.9 ± 0.3 mmol/L | 7.1 ± 0.3 mmol/L | 
VSCNGVCSPFDMPPCGTSACRCIPAGLFIGYCRNPSG (disulfide 15-32, 3-20, 7-22) [SEQ ID No. 61] | 5.6 ± 0.4 mmol/L | 4.3 ± 0.3 mmol/L | 3.6 ± 0.2 mmol/L | 2.3 ± 0.1 mmol/L | 6.9 ± 0.4 mmol/L | 
VSCNGVCSPFEIPPCGSPLCRCIPAGLVIGNCRNPYG (disulfide 15-32, 3-20, 7-22) [SEQ ID No. 63] | 5.9 ± 0.5 mmol/L | 4.6 ± 0.4 mmol/L | 3.2 ± 0.3 mmol/L | 3.5 ± 0.2 mmol/L | 6.6 ± 0.6 mmol/L | 
VSCNGVCSPFEMPPCGSSACRCIPYGLVVGNCRNPSG (disulfide 15-32, 3-20, 7-22) [SEQ ID No. 68] | 5.5 ± 0.4 mmol/L | 4.2 ± 0.3 mmol/L | 3.4 ± 0.4 mmol/L | 2.2 ± 0.1 mmol/L | 6.7 ± 0.6 mmol/L | 

Source: US20200038478A1, “POLYPEPTIDE AND COMPOSITION THEREOF FOR TREATING DISEASES OF METABOLIC SYSTEM” (WUHAN GRECTECH CO., LTD., priority 2017, published 2020)
